Patent US8846661B2, “Diazahomoadamantane derivatives and methods of use thereof” (AbbVie Inc., priority 2009, dated 2014)
pKi: −log10 of the molar value.

These compounds were tested against α7 NNR (UniProt Q05941). Settings: [3H]-DPPB binding.
Description: [^3H]-DPPB, [^3H]-(S,S)-2,2-dimethyl-5-(6-phenyl-pyridazin-3-yl)-5-aza-2-azonia-bicyclo[2.2.1]heptane iodide, binding to the α7 NNR subtype was determined using membrane enriched fractions from rat brain minus cerebellum or human cortex (ABS Inc., Wilmington, Del.) as described in Anderson, D. J.; et al., J. Pharmacol. Exp. Ther. 2008, 324: 179-187 which is incorporated herein by reference. Briefly, pellets were thawed at 4° C., washed and resuspended with a Polytron at a setting of 7 in 30 volumes of BSS-Tris buffer (120 mM NaCl, 5 mM KCl, 2 mM CaCl2, 2 mM MgCl2, and 50 mM Tris-C1, pH 7.4, 4° C.). Seven log-dilution concentrations of test compounds containing 100-200 μg of protein, and 0.5 nM [^3H]-DPPB (62.8 Ci/mmol; R46V, Abbott Labs) were incubated in a final volume of 500 μL for 75 minutes at 4° C. in duplicate. Non-specific binding was determined in the presence of 10 μM methyllycaconitine. Bound radioactivity was collected on Millipore MultiScreen® harvest plates FB presoaked with 0.3% polyethyleneimine using a Packard cell harvester, washed with 2.5 mL ice-cold buffer, and radioactivity was determined using a Packard TopCount Microplate beta counter. IC50 values were determined by nonlinear regression in Microsoft® Excel or Assay Explorer. K, values were calculated from the IC50s using the Cheng-Prusoff equation, where Ki=IC50/(1+[Ligand]/KD) and are shown in Table 1.

Q: “4-[5-(3,4-difluorophenyl)pyridin-3-yl]-1,4-diazatricyclo[4.3.1.1^3s]undecane [Example 99]” was tested. Which pKi did it give?
A: The pKi was < 5.00.

Q: With O=C1NC2CC3CC1CN(C3)C2 (stereo not shown) [Example 1, 1,4-diazatricyclo[4.3.1.1^3,8]undecan-5-one] as the compound, how does the pKi read?
A: The pKi was 6.15.

Q: How did the pKi turn out when O=C(c1cc2ccsc2cn1)N1CC2CC3CC1CN(C3)C2 (stereo not shown) [Example 3, 4-(thieno[2,3-c]pyridin-5-ylcarbonyl)-1,4-diazatricyclo[4.3.1.1^3,8]undecane] was run?
A: Its pKi is 7.94.

Q: How did the pKi turn out when O=C(c1ccc2sccc2n1)N1CC2CC3CC1CN(C3)C2 (stereo not shown) [Example 4, 4-(thieno[3,2-b]pyridin-5-ylcarbonyl)-1,4-diazatricyclo[4.3.1.1^3,8]undecane] was run?
A: Its pKi is 6.34.

Q: O=S1(=O)c2ccccc2-c2ccc(N3CC4CC5CC3CN(C5)C4)cc21 (stereo not shown) [Example 5, 4-(5,5-dioxidodibenzo[b,d]thien-3-yl)-1,4-diazatricyclo[4.3.1.1^3,8]undecane] was tested. Which pKi did it give?
A: The pKi was 8.64.

Q: How did the pKi turn out when c1cc2cc(-c3ccc(N4CC5CC6CC4CN(C6)C5)nn3)ccc2s1 (stereo not shown) [Example 8, 4-[6-(1-benzothien-5-yl)pyridazin-3-yl]-1,4-diazatricyclo[4.3.1.1^3,8]undecane] was run?
A: The pKi was 8.46.

Q: How did the pKi turn out when O=C(c1ccc2[nH]ccc2c1)N1CC2CC3CC1CN(C3)C2 (stereo not shown) [Example 37, 4-(1H-indol-5-ylcarbonyl)-1,4-diazatricyclo[4.3.1.1^3,8]undecane] was run?
A: Its pKi is < 5.00.

Q: With O=C(c1n[nH]c2ccccc12)N1CC2CC3CC1CN(C3)C2 (stereo not shown) [Example 57, 4-(1H-indazol-3-ylcarbonyl)-1,4-diazatricyclo[4.3.1.1^3,8]undecane] as the compound, how does the pKi read?
A: Its pKi is 7.63.

Q: c1cc(-c2cncc(N3CC4CC5CC3CN(C5)C4)c2)c2cc[nH]c2c1 (stereo not shown) [Example 104, 4-[5-(1H-indol-4-yl)pyridin-3-yl]-1,4-diazatricyclo[4.3.1.1^3,8]undecane] was tested. Which pKi did it give?
A: Its pKi is 7.58.

Q: How did the pKi turn out when COc1ccc(-c2cnc(N3CC4CC5CC3CN(C5)C4)s2)cc1 (stereo not shown) [Example 105, 4-[5-(4-methoxyphenyl)-1,3-thiazol-2-yl]-1,4-diazatricyclo[4.3.1.1^3,8]undecane] was run?
A: The pKi was 6.87.

Q: How did the pKi turn out when Cc1ccc(-c2cnc(N3CC4CC5CC3CN(C5)C4)s2)cc1 (stereo not shown) [Example 106, 4-[5-(4-methylphenyl)-1,3-thiazol-2-yl]-1,4-diazatricyclo[4.3.1.1^3,8]undecane] was run?
A: Its pKi is 7.58.

Q: Fc1cccc(-c2cnc(N3CC4CC5CC3CN(C5)C4)s2)c1 (stereo not shown) [Example 108, 4-[5-(3-fluorophenyl)-1,3-thiazol-2-yl]-1,4-diazatricyclo[4.3.1.1^3,8]undecane] was tested. Which pKi did it give?
A: The pKi was 7.42.

Q: Fc1ccc(-c2cnc(N3CC4CC5CC3CN(C5)C4)s2)cc1 (stereo not shown) [Example 110, 4-[5-(4-fluorophenyl)-1,3-thiazol-2-yl]-1,4-diazatricyclo[4.3.1.1^3,8]undecane] was tested. Which pKi did it give?
A: The pKi was 7.27.

Q: How did the pKi turn out when Clc1ccc2nc(N3CC4CC5CC3CN(C5)C4)sc2c1 (stereo not shown) [Example 111, 4-(6-chloro-1,3-benzothiazol-2-yl)-1,4-diazatricyclo[4.3.1.1^3,8]undecane] was run?
A: The pKi was 6.94.

Q: How did the pKi turn out when Clc1ccc2nc(N3CC4CC5CC3CN(C5)C4)oc2c1 (stereo not shown) [Example 112, 4-(6-chloro-1,3-benzoxazol-2-yl)-1,4-diazatricyclo[4.3.1.1^3,8]undecane] was run?
A: The pKi was 7.45.

Q: How did the pKi turn out when c1ccc2sc(N3CC4CC5CC3CN(C5)C4)nc2c1 (stereo not shown) [Example 113, 4-(1,3-benzothiazol-2-yl)-1,4-diazatricyclo[4.3.1.1^3,8]undecane] was run?
A: The pKi was < 5.00.
